Literature values in US12533310B2, “Fragrance or flavor composition” (Takasago International Corporation, priority 2019, dated 2026).

Legend:
[1] = background art, Patent Literature 4; cited from earlier work
olfactory receptor OR2W1 = target: T1, olfactory receptor OR2W1 (Homo sapiens, UniProt Q9Y3N9); conditions: background art, Patent Literature 4; cited from earlier work
T1 sequence (Q9Y3N9 1-320): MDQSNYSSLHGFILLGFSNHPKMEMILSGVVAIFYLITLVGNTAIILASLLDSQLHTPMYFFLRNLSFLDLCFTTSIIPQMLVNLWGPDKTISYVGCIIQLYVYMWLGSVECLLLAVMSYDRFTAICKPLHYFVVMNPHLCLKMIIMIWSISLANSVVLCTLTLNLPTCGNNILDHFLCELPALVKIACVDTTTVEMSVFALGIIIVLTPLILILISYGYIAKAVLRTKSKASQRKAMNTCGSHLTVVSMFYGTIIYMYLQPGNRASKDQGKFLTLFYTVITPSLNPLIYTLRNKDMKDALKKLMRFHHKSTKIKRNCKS

For `CC(C)c1cccc(C(C)CC=O)c1` (centres unmarked) [florhydral], the “suppression of offensive odor induced by hexanoic acid in sensory testing” value [1] is given as “suppress an offensive odor induced by hexanoic acid” and the “inhibition of the activity of OR2W1” value (olfactory receptor OR2W1) is given as “inhibiting the activity of this OR2W1”.
